# From US20070191291A1, “Compound antibacterial drugs comprising n-acetyl-d-glucosamine” (priority 2003, published 2007)
# Where two headings read alike, the source gives them in different places.
# Legend:
# [1] = tested on: rats infected and not infected by Bacillus typhi murium; type: in vivo, Wistar rats; settings: rats infected or not by Bacillus typhi murium, consecutive week, 15 rats per group
# [2] = tested on: irritable bowel syndrome (IBS) caused by bacterial CGC; experiment: Test Example 5: preventing irritable bowel syndrome (IBS) caused by bacterial CGC; type: in vivo, rats; settings: for CGCs in the rat stools after one week of drug withdrawal / CGCs in the stools of the rats: rats, effective dosage for consecutive 10 days, 30 rats per group; for CGCs in the stools of the rats: stools observed during administration and within 1 week after drug withdrawal
# Source text: On this basis, the rats were subjected to stimulations such as electric stimulation, intragastric administration with fructus zanthoxyli water, cold, constraint etc. in order to induce IBS, and the incidence rates of IBS of two groups were observed.
# [3] = tested on: Bacteroides fragilis; experiment: Test Example 2: preventing formation of bacterial CGC in vitro (K-B method); type: cell-based
# Experimental: (§1) E. coli (No. 33310, purchased from Chengdu Institute of Biological Products, the Ministry of Public Health) was used in the tests. Grid design was performed by using antibiotic with different concentrations and N-acetyl-D-glucosamine having an amount of from 10 mg to 300 mg. Streak plates were conducted separately, and K-B method was employed for drugs. Colonies at marginal part of drug inhibition zone were picked and were observed under microscope. If cell length was more than 50 μm and cell number was more than 5 in each visual field, it was deemed as CGC positive and was marked with “+”; while if cell length was not greater than 50 μm and cell number was within the range from 0 to 4 in each visual field, it was deemed as CGC negative and was marked with “−”. At this time, the ratio of two substances was called “effective ratio”.
# (§2) Effects tests of compound preparation comprising N-acetyl-D-glucosamine and antibiotics for preventing the formation of bacterial CGC in vitro.
# (§3) The tests were carried out in vitro, wherein gram-negative amphimicrodes, gram-negative anaerobes and gram-positive aerobes were separately coated on streak plates, test drugs and control drugs were separately dissolved with same volume of sterile water for injection, 10 μl of each drug was used for preparing drug-sensitive paper, K-B method was employed in the tests of drugs, and the inhibition situations of CGC formation were observed.
# [4] = tested on: E. coli; experiment: as above; type: cell-based
# Experimental: as §1, §2, §3
# [5] = tested on: Nucleic Acid Bacter; experiment: as above; type: cell-based
# Experimental: as §1, §2, §3
# [6] = tested on: Bacillus proteus; experiment: as above; type: cell-based
# Experimental: as §1, §2, §3
# [7] = tested on: Diphtheroid bacillus; experiment: as above; type: cell-based
# Experimental: as §1, §2, §3
# [8] = tested on: Bacillus cereus; experiment: as above; type: cell-based
# Experimental: as §1, §2, §3
# [9] = tested on: Citro Bacter; experiment: as above; type: cell-based
# Experimental: as §1, §2, §3
# [10] = tested on: Klebsiella; experiment: as above; type: cell-based
# Experimental: as §1, §2, §3
# [11] = tested on: Listeria; experiment: as above; type: cell-based
# Experimental: as §1, §2, §3
# [12] = first of three values given respectively: electric stimulation
# [13] = second of three values given respectively: intragastric administration with fructus zanthoxyli water
# [14] = third of three values given respectively: cold, constraint etc.
# [15] = compound preparation 150 mg N-acetyl-D-glucosamine + 150 mg ampicillin, control ampicillin
# [16] = compound preparation 100 mg N-acetyl-D-glucosamine + 300 mg cefuroxime, control 300 mg cefuroxime
# [17] = compound preparation N-acetyl-D-glucosamine (100 mg) and chloramphenicol (400 mg), control chloramphenicol (400 mg)
# [18] = compound preparation 100 mg N-acetyl-D-glucosamine + 400 mg norfloxacin, control norfloxacin same dose
compound,measurement,setting,value
"CC1(C)S[C@@H]2[C@H](NC(=O)[C@H](N)c3ccccc3)C(=O)N2[C@H]1C(=O)O [Ampicillin, ampicillin]",positive rates of stool CGC and intestinal mucosa CGC,[1]; N-acetyl-D-glucosamine (100 mg)+ampicillin (200 mg) vs only ampicillin,100%
same,incidence rate of IBS,[2]; [12],33%
same,CGCs in the rat stools after one week of drug withdrawal,[2],still present
same,CGCs in the stools of the rats,[2],a large amount of CGCs appeared
same,incidence rate of IBS,[2]; [13],33%
same,incidence rate of IBS,[2]; [14],33%
same,CGC formation,[3]; [15],"+ (If cell length was more than 50 μm and cell number was more than 5 in each visual field, it was deemed as CGC positive and was marked with “+”)"
same,CGC formation,[4]; [15],"+ (If cell length was more than 50 μm and cell number was more than 5 in each visual field, it was deemed as CGC positive and was marked with “+”)"
same,CGC formation,[5]; [15],"+ (If cell length was more than 50 μm and cell number was more than 5 in each visual field, it was deemed as CGC positive and was marked with “+”)"
same,CGC formation,[6]; [15],"+ (If cell length was more than 50 μm and cell number was more than 5 in each visual field, it was deemed as CGC positive and was marked with “+”)"
same,CGC formation,[7]; [15],"+ (If cell length was more than 50 μm and cell number was more than 5 in each visual field, it was deemed as CGC positive and was marked with “+”)"
same,CGC formation,[8]; [15],"+ (If cell length was more than 50 μm and cell number was more than 5 in each visual field, it was deemed as CGC positive and was marked with “+”)"
same,CGC formation,[9]; [15],"+ (If cell length was more than 50 μm and cell number was more than 5 in each visual field, it was deemed as CGC positive and was marked with “+”)"
same,CGC formation,[10]; [15],"+ (If cell length was more than 50 μm and cell number was more than 5 in each visual field, it was deemed as CGC positive and was marked with “+”)"
same,CGC formation,[11]; [15],"+ (If cell length was more than 50 μm and cell number was more than 5 in each visual field, it was deemed as CGC positive and was marked with “+”)"
"CO/N=C(\C(=O)N[C@@H]1C(=O)N2C(C(=O)O)=C(COC(N)=O)CS[C@H]12)c1ccco1 [Cefuroxime, cefuroxime]",positive rates of stool CGC and intestinal mucosa CGC,[1]; N-acetyl-D-glucosamine (100 mg)+cefuroxime (300 mg) vs antibiotic only,100%
same,incidence rate of IBS,[2]; [12],33%
same,CGCs in the rat stools after one week of drug withdrawal,[2],still present
same,CGCs in the stools of the rats,[2],a large amount of CGCs appeared
same,incidence rate of IBS,[2]; [13],33%
same,incidence rate of IBS,[2]; [14],33%
same,CGC formation,[3]; [16],"+ (If cell length was more than 50 μm and cell number was more than 5 in each visual field, it was deemed as CGC positive and was marked with “+”)"
same,CGC formation,[4]; [16],"+ (If cell length was more than 50 μm and cell number was more than 5 in each visual field, it was deemed as CGC positive and was marked with “+”)"
same,CGC formation,[5]; [16],"+ (If cell length was more than 50 μm and cell number was more than 5 in each visual field, it was deemed as CGC positive and was marked with “+”)"
same,CGC formation,[6]; [16],"+ (If cell length was more than 50 μm and cell number was more than 5 in each visual field, it was deemed as CGC positive and was marked with “+”)"
same,CGC formation,[7]; [16],"+ (If cell length was more than 50 μm and cell number was more than 5 in each visual field, it was deemed as CGC positive and was marked with “+”)"
same,CGC formation,[8]; [16],"+ (If cell length was more than 50 μm and cell number was more than 5 in each visual field, it was deemed as CGC positive and was marked with “+”)"
same,CGC formation,[9]; [16],"+ (If cell length was more than 50 μm and cell number was more than 5 in each visual field, it was deemed as CGC positive and was marked with “+”)"
same,CGC formation,[10]; [16],"+ (If cell length was more than 50 μm and cell number was more than 5 in each visual field, it was deemed as CGC positive and was marked with “+”)"
same,CGC formation,[11]; [16],"+ (If cell length was more than 50 μm and cell number was more than 5 in each visual field, it was deemed as CGC positive and was marked with “+”)"
"O=C(N[C@H](CO)[C@H](O)c1ccc([N+](=O)[O-])cc1)C(Cl)Cl [Chloramphenicol, chloramphenicol]",positive rates of stool CGC and intestinal mucosa CGC,[1]; N-acetyl-D-glucosamine (100 mg)+chloramphenical (400 mg) vs only chloramphenicol,100%
same,incidence rate of IBS,[2]; [12],33%
same,CGCs in the rat stools after one week of drug withdrawal,[2],still present
same,CGCs in the stools of the rats,[2],a large amount of CGCs appeared
same,incidence rate of IBS,[2]; [13],33%
same,incidence rate of IBS,[2]; [14],33%
same,CGC formation,[3]; [17],"+ (If cell length was more than 50 μm and cell number was more than 5 in each visual field, it was deemed as CGC positive and was marked with “+”)"
same,CGC formation,[4]; [17],"+ (If cell length was more than 50 μm and cell number was more than 5 in each visual field, it was deemed as CGC positive and was marked with “+”)"
same,CGC formation,[5]; [17],"+ (If cell length was more than 50 μm and cell number was more than 5 in each visual field, it was deemed as CGC positive and was marked with “+”)"
same,CGC formation,[6]; [17],"+ (If cell length was more than 50 μm and cell number was more than 5 in each visual field, it was deemed as CGC positive and was marked with “+”)"
same,CGC formation,[7]; [17],"+ (If cell length was more than 50 μm and cell number was more than 5 in each visual field, it was deemed as CGC positive and was marked with “+”)"
same,CGC formation,[8]; [17],"+ (If cell length was more than 50 μm and cell number was more than 5 in each visual field, it was deemed as CGC positive and was marked with “+”)"
same,CGC formation,[9]; [17],"+ (If cell length was more than 50 μm and cell number was more than 5 in each visual field, it was deemed as CGC positive and was marked with “+”)"
same,CGC formation,[10]; [17],"+ (If cell length was more than 50 μm and cell number was more than 5 in each visual field, it was deemed as CGC positive and was marked with “+”)"
same,CGC formation,[11]; [17],"+ (If cell length was more than 50 μm and cell number was more than 5 in each visual field, it was deemed as CGC positive and was marked with “+”)"
"CCn1cc(C(=O)O)c(=O)c2cc(F)c(N3CCNCC3)cc21 [Norfloxacin, norfloxacin]",CGC formation,[3]; [18],"+ (If cell length was more than 50 μm and cell number was more than 5 in each visual field, it was deemed as CGC positive and was marked with “+”)"
same,CGC formation,[4]; [18],"+ (If cell length was more than 50 μm and cell number was more than 5 in each visual field, it was deemed as CGC positive and was marked with “+”)"
same,CGC formation,[5]; [18],"+ (If cell length was more than 50 μm and cell number was more than 5 in each visual field, it was deemed as CGC positive and was marked with “+”)"
same,CGC formation,[6]; [18],"+ (If cell length was more than 50 μm and cell number was more than 5 in each visual field, it was deemed as CGC positive and was marked with “+”)"
same,CGC formation,[7]; [18],"+ (If cell length was more than 50 μm and cell number was more than 5 in each visual field, it was deemed as CGC positive and was marked with “+”)"
same,CGC formation,[8]; [18],"+ (If cell length was more than 50 μm and cell number was more than 5 in each visual field, it was deemed as CGC positive and was marked with “+”)"
same,CGC formation,[9]; [18],"+ (If cell length was more than 50 μm and cell number was more than 5 in each visual field, it was deemed as CGC positive and was marked with “+”)"
same,CGC formation,[10]; [18],"+ (If cell length was more than 50 μm and cell number was more than 5 in each visual field, it was deemed as CGC positive and was marked with “+”)"
same,CGC formation,[11]; [18],"+ (If cell length was more than 50 μm and cell number was more than 5 in each visual field, it was deemed as CGC positive and was marked with “+”)"
CO[C@@]1(NC(=O)Cc2cccs2)C(=O)N2C(C(=O)O)=C(COC(N)=O)CS[C@@H]21 [cefoxitin],positive rates of stool CGC and intestinal mucosa CGC,[1]; N-acetyl-D-glucosamine (100 mg)+cefoxitin (150 mg) vs only cefoxitin,100%
same,incidence rate of IBS,[2]; [12],33%
same,CGCs in the rat stools after one week of drug withdrawal,[2],still present
same,CGCs in the stools of the rats,[2],a large amount of CGCs appeared
same,incidence rate of IBS,[2]; [13],33%
same,incidence rate of IBS,[2]; [14],33%
O=C(O)c1cn(C2CC2)c2cc(N3CCNCC3)c(F)cc2c1=O [ciprofloxacin],positive rates of stool CGC and intestinal mucosa CGC,[1]; N-acetyl-D-glucosamine (100 mg)+ciprofloxacin (500 mg) vs only ciprofloxacin,100%
